Assay [1] deals with recombinant human AMPK complex 1 (containing α1β1γ1) (Homo sapiens (Human), UniProt Q13131+Q9Y478). The experiment in a line: In vitro AMPK activation assay (AMPKSAMSF), complex 1. The assay is classed as biochemical. The conditions noted are these: recombinant human AMPK complex 1 (α1β1γ1); for % Maximum AMP Activation of human AMPK Complex 1: 10-point titration. How it is done:
(§1) The recombinant human AMPK complex 1 (containing α1β1γ1) or AMPK complex 7 (containing α2β1γ1) was obtained from baculovirus expression system. Recombinant viruses were generated by cotransfection of AMPK/pBacPak9 clones with Baculogold baculovirus DNA (Pharmingen) in spodoptera frugiperda 21 cells according to the manufacturer's instructions. Each round of virus amplification was performed for 5 days in Grace's medium containing 10% serum. Virus that had been subjected to three rounds of amplification was used for all protein production procedures. To express the AMPK complex, sf21 cells were adapted to serum free medium (SF900 II, Invitrogen) by sequential dilution from serum containing stocks into SF900II medium and maintained in shaker flasks at 90 rpm at 27° C. The recombinant AMPK enzyme complex was produced by triple infection, one recombinant virus for each of the subunits, in sf21 cells under serum free conditions. Cells were infected in log phase, 1×10^6 cells/ml, at a multiplicity of infection of 5. Cells were harvested by centrifugation at 10,000×g for 15 minutes after 72 hours of infection with viruses. The insect cell pellet from 2 liters of culture was resuspended in 50 ml lysis buffer (20 mM Tris-HCl, 50 mM NaCl, 50 mM NaF, 30 mM Na PPi, 0.25 M sucrose, 10 mM ZnCl2, 2 mM DTT, 0.4 mg/ml digitonin) and subjected to two cycles of freeze-thaw lysis in a dry-ice ethanol bath. Insoluble material was removed by centrifugation at 10,000×g and the supernatant was fractionated with use of polyethylene glycol (PEG). The protein fraction precipitating between 2.5 and 6% PEG was used for further purification using a Blue-Sepharose step (Zhou et al, J. Clin. Invest. 108, 1167-1174, 2001).
(§2) The in vitro AMPK activation assay is performed in a volume of 30 μl in a 384-well plate. Enzyme reactions were assembled in the microtiter plate by adding 15 μl of 2X enzyme in assay buffer (20 mM HEPES, pH 7.3, 5 mM MgCl2, 3 mM DTT, 0.01% Brij 35 and CamK Kinase, to activate AMPK) to wells which contained either DMSO or compound. The reaction was initiated with the addition of 15 μl 2× substrate mixture containing 200 μM ATP, and 3.0 μM fluorescently labeled SAMS (5-FAM-HMRSAMSGLHLVKRR-COOH) in assay buffer. After 45-minute incubation at 25° C., the reaction was stopped by the addition of 70 μl stop buffer (100 mM HEPES, pH 7.3, 40 mM EDTA, 0.015% Brij 35). Phosphorylated 5-FAM SAMS product is assessed using a Caliper EZ Reader LabChip microfluidics reader. Product conversion is determined by calculating the peak heights of the substrate and product and reporting the product/(product+substrate) peak ratio. The 10-point titration data were expressed as % maximum AMP activation. The results were plotted using 4 parameter fit and the inflection point reflecting 50% of the maximum activation was reported as the EC50.

The target of assay [2] is recombinant human AMPK complex 7 (containing α2β1γ1) (Homo sapiens (Human), UniProt P54646+Q9Y478). The experiment in a line: In vitro AMPK activation assay (AMPKSAMSF), complex 7. The assay is classed as biochemical. The conditions noted are these: recombinant human AMPK complex 7 (α2β1γ1); for Emax: 10-point titration, read-out: % Maximum AMP Activation of human AMPK Complex 7. How it is done: as §1, §2

A further assay concerns ob/ob and db/db mice. The conditions noted are these: following 8 weeks of administration; cited from earlier work.

recombinant human AMPK complex 1 (containing α1β1γ1), sequence (Q13131 whole entry): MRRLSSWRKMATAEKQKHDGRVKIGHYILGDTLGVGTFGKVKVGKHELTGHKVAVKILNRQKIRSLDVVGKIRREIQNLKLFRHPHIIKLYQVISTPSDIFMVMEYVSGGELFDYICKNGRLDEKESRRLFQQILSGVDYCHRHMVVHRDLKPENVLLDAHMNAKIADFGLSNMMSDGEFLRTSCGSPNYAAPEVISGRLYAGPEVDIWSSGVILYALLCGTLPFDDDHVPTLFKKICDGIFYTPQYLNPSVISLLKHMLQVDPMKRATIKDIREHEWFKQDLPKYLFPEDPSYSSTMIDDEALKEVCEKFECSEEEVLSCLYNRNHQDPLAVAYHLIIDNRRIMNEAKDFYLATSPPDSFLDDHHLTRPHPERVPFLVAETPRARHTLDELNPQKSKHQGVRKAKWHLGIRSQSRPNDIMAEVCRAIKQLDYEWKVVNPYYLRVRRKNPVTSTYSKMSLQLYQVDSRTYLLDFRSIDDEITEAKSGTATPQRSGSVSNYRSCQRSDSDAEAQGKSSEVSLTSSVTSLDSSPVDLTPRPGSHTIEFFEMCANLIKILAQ
recombinant human AMPK complex 1 (containing α1β1γ1), sequence (Q9Y478 whole entry): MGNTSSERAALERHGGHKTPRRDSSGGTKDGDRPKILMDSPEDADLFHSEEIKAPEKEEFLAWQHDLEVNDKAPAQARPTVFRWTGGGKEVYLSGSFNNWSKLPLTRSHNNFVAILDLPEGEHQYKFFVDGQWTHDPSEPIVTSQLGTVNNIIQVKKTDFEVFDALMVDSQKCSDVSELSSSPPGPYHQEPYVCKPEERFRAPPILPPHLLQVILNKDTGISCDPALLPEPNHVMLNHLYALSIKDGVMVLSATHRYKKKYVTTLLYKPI
recombinant human AMPK complex 1 (containing α1β1γ1), sequence (P54619 whole entry partner): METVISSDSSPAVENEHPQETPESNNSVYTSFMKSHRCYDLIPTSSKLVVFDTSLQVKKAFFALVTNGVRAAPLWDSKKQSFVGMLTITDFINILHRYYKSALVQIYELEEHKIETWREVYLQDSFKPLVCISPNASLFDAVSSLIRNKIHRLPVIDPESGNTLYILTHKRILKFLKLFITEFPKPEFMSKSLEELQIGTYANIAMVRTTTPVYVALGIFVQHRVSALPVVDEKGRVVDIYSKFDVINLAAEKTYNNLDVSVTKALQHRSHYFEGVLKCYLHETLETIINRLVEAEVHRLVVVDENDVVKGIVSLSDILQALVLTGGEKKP
recombinant human AMPK complex 7 (containing α2β1γ1), sequence (P54646 whole entry): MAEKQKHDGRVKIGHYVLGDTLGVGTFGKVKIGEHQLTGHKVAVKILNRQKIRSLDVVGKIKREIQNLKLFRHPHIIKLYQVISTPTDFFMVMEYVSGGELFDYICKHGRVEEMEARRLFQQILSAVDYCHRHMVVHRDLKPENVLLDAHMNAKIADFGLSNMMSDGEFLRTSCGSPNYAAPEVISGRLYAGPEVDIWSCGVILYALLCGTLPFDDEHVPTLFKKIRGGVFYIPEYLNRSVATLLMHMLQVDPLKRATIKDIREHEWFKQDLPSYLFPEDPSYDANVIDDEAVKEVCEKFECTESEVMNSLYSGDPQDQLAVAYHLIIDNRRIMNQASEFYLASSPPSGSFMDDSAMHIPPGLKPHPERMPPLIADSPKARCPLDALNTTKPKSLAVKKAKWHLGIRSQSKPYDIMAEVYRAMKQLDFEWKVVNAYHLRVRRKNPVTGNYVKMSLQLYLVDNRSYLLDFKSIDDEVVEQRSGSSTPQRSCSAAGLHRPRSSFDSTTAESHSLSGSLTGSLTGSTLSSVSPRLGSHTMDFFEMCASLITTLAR
recombinant human AMPK complex 7 (containing α2β1γ1), sequence (Q9Y478 whole entry): as the sequence (Q9Y478 whole entry) above
recombinant human AMPK complex 7 (containing α2β1γ1), sequence (P54619 whole entry partner): as the sequence (P54619 whole entry partner) above

Consider `CS(=O)(=O)c1ccc(-c2ccc(-c3c(F)cc4[nH]c(O[C@H]5CO[C@H](CO)[C@@H](O)C5)nc4c3F)cc2)cc1` [Example 26], for which, in assay [1], the EC50 worked out at 7 nM and the “% Maximum AMP Activation of human AMPK Complex 1” value (shortened to “% Maximum AMP Activation”) is listed as 558%.

Regarding `CC(CO)(CO)c1ccc(-c2ccc(-c3cc4nc(O[C@H]5CO[C@H](CO)[C@@H](O)C5)[nH]c4cc3Cl)cc2)cc1` [Example 7], in assay [2], the EC50 worked out at 6 nM and the Emax came to 333%.

In the case of `O=C1NCCC1c1ccc(-c2ccc(-c3c(F)cc4[nH]c(O[C@H]5CO[C@H](CO)[C@@H](O)C5)nc4c3F)cc2)cc1` (stereo partly drawn) [Example 43], in assay [2], the EC50 is 4 nM and the Emax is 398%.

As to `O=S(=O)(c1ccc(-c2ccc(-c3cc4nc(O[C@H]5CO[C@H](CO)[C@@H](O)C5)[nH]c4cc3Cl)cc2)cc1)C1CCNCC1` [Example 18], in assay [2], the EC50 was determined as 14 nM and the Emax came to 364%.

Turning to `OC[C@H]1OC[C@H](Oc2nc3c(F)c(-c4ccc(-c5ccc(-c6ncco6)cc5)cc4)c(F)cc3[nH]2)C[C@@H]1O` [Example 38], in assay [2], the EC50 came to 17 nM and the Emax came out at 266%.

For the molecule `OC[C@H]1OC[C@H](Oc2nc3c(F)c(-c4ccc(-c5ccc(-c6nnn[nH]6)cc5)cc4)c(F)cc3[nH]2)C[C@@H]1O` [Example 49], in assay [2], the EC50 amounted to 9 nM and the Emax stood at 419%.

For `CS(=O)(=O)Cc1ccc(-c2ccc(-c3cc4nc(O[C@H]5CO[C@H](CO)[C@@H](O)C5)[nH]c4cc3Cl)cc2)cc1` [Example 2], in assay [1], the EC50 came to 36 nM and the “% Maximum AMP Activation” value is 490%.

`N=c1nc(N)[nH]n1-c1ccc(-c2ccc(-c3c(F)cc4[nH]c(O[C@H]5CO[C@H](CO)[C@@H](O)C5)nc4c3F)cc2)cc1` [Example 40]: in assay [2], the EC50 is 5 nM and the Emax stood at 387%.

In the case of `CNC(=O)c1ccc(-c2ccc(-c3c(F)cc4[nH]c(O[C@H]5CO[C@H](CO)[C@@H](O)C5)nc4c3F)cc2)cc1` [Example 48], in assay [2], the EC50 was 2 nM and the Emax is 414%.

With `CC(C)(O)c1ccc(-c2ccc(-c3c(F)cc4[nH]c(O[C@H]5CO[C@H](CO)[C@@H](O)C5)nc4c3F)cc2)cc1` [Example 29], in assay [1], the EC50 came out at 26 nM and the “% Maximum AMP Activation” value is 492%.

With `O=C(O)CCCc1ccc(-c2ccc(-c3c(F)cc4[nH]c(O[C@H]5CO[C@H](CO)[C@@H](O)C5)nc4c3F)cc2)cc1` [Example 44], in assay [2], the EC50 stood at 11 nM and the Emax was 426%.

With `N=c1nc(N)[nH]n1-c1ccc(-c2ccc(-c3cc4nc(O[C@H]5CO[C@H](CO)[C@@H](O)C5)[nH]c4cc3Cl)cc2)cc1` [Example 16], in assay [2], the EC50 amounted to 7 nM and the Emax came to 373%.

For `OC[C@H]1OC[C@H](Oc2nc3c(F)c(-c4ccc(-c5ccc(-c6nnc(O)o6)cc5)cc4)c(F)cc3[nH]2)C[C@@H]1O` [Example 47], in assay [2], the EC50 stood at 7 nM and the Emax is 328%.

Turning to `OC[C@H]1OC[C@H](Oc2nc3cc(-c4ccc(-c5ccc(-n6cncn6)cc5)cc4)c(Cl)cc3[nH]2)C[C@@H]1O` [Example 21], in assay [2], the EC50 came out at 9 nM and the Emax was 400%.

As to `OC[C@H]1OC[C@H](Oc2nc3cc(-c4ccc(-c5ccc(C6CNCCO6)cc5)cc4)c(Cl)cc3[nH]2)C[C@@H]1O` (stereo partly drawn) [Example 8], in assay [2], the EC50 came to 12 nM and the Emax was 348%.

For `NC(=O)c1ncn([C@@H]2O[C@H](CO)[C@@H](O)[C@H]2O)c1N` [AICAR], the blood glucose reduction in the assay with ob/ob and db/db mice is 35%.

Regarding `O=C1NCCC1c1ccc(-c2ccc(-c3cc4nc(O[C@H]5CO[C@H](CO)[C@@H](O)C5)[nH]c4cc3Cl)cc2)cc1` (stereo partly drawn) [Example 19], in assay [2], the EC50 was 15 nM and the Emax was 392%.

Turning to `CC(C)(O)Cc1cnn(-c2ccc(-c3ccc(-c4cc5nc(O[C@H]6CO[C@H](CO)[C@@H](O)C6)[nH]c5cc4Cl)cc3)cc2)c1` [Example 24], in assay [2], the EC50 was found to be 18 nM and the Emax worked out at 360%.

As to `OC[C@H]1OC[C@H](Oc2nc3cc(-c4ccc(-c5ccc(-c6nccc(O)n6)cc5)cc4)c(Cl)cc3[nH]2)C[C@@H]1O` [Example 6], in assay [2], the EC50 was determined as 7 nM and the Emax stood at 373%.

Consider `OC[C@H]1OC[C@H](Oc2nc3c(F)c(-c4ccc(-c5ccc(-c6nccc(O)n6)cc5)cc4)c(F)cc3[nH]2)C[C@@H]1O` [Example 35], for which, in assay [2], the EC50 was determined as 3 nM and the Emax amounted to 370%.

For the molecule `O=S(=O)(c1ccc(-c2ccc(-c3c(F)cc4[nH]c(O[C@H]5CO[C@H](CO)[C@@H](O)C5)nc4c3F)cc2)cc1)C1CCNCC1` [Example 42], in assay [2], the EC50 is 8 nM and the Emax was determined as 401%.

In the case of `OC[C@H]1OC[C@H](Oc2nc3cc(-c4ccc(-c5ccc(-c6nnn[nH]6)cc5)cc4)c(Cl)cc3[nH]2)C[C@@H]1O` [Example 23], in assay [2], the EC50 stood at 18 nM and the Emax stood at 387%.

Regarding `CC(C)(O)Cc1cnn(-c2ccc(-c3ccc(-c4c(F)cc5[nH]c(O[C@H]6CO[C@H](CO)[C@@H](O)C6)nc5c4F)cc3)cc2)c1` [Example 50], in assay [2], the EC50 is 7 nM and the Emax stood at 403%.

Consider `OC[C@H]1OC[C@H](Oc2nc3c(F)c(-c4ccc(-c5ccc(-n6cncn6)cc5)cc4)c(F)cc3[nH]2)C[C@@H]1O` [Example 45], for which, in assay [2], the EC50 was determined as 2 nM and the Emax came to 391%.

Take `OC[C@H]1OC[C@H](Oc2nc3c(F)c(-c4ccc(-c5ccc(-c6nccs6)cc5)cc4)c(F)cc3[nH]2)C[C@@H]1O` [Example 39]: in assay [2], the EC50 is 13 nM and the Emax worked out at 192%.

Regarding `OC[C@H]1OC[C@H](Oc2nc3c(F)c(-c4ccc(-c5ccc(C6CNCCO6)cc5)cc4)c(F)cc3[nH]2)C[C@@H]1O` (stereo partly drawn) [Example 36], in assay [2], the EC50 amounted to 3 nM and the Emax was 327%.

One may read the EC50 as the midpoint of the concentration-response curve.

(Values after patent US9527839B2, “Benzimidazole tetrahydropyran derivatives” (Merck Sharp & Dohme Corp., priority 2012, dated 2016).)
